# Values of other authors, collected in patent publication US20040192658A1, “Compositions and methods of using collajolie” (Angiotech International AG, priority 2002, published 2004).
# B1: TIMP-3: 21 kD Tissue Inhibitor of Matrix Metalloproteinase (protein, UniProt P35625 24-211, looked up)
# Metalloproteinase inhibitor 3: CTCSPSHPQDAFCNSDIVIRAKVVGKKLVKEGPFGTLVYTIKQMKMYRGFTKMPHVQYIHTEASESLCGLKLEVNKYQYLLTGRVYDGKMYTGLCNFVERWDQLTLSQRKGLNYRYHLGCNCKIKSCYYLPCFVTSKNECLWTDMLSNFGYPGYQSKHYACIRQKGGYCSWYRGWAPPDKSIINATDP
# Legend:
# interstitial collagenase = target: T1, interstitial collagenase (Homo sapiens, UniProt P03956); details: compared with TIMP-2
# T1 sequence (P03956 100-469): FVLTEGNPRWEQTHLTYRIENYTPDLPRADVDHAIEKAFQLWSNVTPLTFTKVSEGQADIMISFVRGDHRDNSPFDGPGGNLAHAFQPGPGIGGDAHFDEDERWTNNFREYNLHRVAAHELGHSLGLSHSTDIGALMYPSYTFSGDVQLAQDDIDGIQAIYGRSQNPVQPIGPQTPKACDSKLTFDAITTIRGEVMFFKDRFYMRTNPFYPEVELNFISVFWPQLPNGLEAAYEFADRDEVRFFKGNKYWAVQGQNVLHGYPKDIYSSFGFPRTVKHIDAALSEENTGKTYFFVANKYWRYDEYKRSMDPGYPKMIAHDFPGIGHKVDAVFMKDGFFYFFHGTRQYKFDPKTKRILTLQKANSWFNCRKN
# gelatinase B = gelatinase B (Homo sapiens, UniProt P14780)
# collagenase 1 = target: T2, collagenase 1 (Homo sapiens, UniProt P03956)
# T2 sequence (P03956 100-469): T1 sequence (P03956 100-469)
# gelatinase A = target: T3, gelatinase A (Homo sapiens, UniProt P08253)
# T3 sequence (P08253 110-660): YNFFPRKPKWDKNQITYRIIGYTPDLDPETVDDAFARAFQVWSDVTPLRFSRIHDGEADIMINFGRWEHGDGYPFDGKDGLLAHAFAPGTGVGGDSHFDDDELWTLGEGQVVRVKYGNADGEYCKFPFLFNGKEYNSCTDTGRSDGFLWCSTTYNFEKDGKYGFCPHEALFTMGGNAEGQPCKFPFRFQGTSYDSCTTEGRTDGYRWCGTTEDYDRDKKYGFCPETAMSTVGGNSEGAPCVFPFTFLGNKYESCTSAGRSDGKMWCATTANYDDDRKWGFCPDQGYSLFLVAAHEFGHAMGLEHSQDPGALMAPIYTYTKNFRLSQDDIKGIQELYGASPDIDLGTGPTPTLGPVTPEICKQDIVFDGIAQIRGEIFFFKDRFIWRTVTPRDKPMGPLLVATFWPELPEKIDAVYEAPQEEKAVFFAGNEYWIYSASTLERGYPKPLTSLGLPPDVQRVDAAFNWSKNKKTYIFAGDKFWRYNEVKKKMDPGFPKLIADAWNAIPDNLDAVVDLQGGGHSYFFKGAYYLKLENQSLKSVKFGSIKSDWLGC
# Sequence of gelatinase B (P14780 94-707, species assumed): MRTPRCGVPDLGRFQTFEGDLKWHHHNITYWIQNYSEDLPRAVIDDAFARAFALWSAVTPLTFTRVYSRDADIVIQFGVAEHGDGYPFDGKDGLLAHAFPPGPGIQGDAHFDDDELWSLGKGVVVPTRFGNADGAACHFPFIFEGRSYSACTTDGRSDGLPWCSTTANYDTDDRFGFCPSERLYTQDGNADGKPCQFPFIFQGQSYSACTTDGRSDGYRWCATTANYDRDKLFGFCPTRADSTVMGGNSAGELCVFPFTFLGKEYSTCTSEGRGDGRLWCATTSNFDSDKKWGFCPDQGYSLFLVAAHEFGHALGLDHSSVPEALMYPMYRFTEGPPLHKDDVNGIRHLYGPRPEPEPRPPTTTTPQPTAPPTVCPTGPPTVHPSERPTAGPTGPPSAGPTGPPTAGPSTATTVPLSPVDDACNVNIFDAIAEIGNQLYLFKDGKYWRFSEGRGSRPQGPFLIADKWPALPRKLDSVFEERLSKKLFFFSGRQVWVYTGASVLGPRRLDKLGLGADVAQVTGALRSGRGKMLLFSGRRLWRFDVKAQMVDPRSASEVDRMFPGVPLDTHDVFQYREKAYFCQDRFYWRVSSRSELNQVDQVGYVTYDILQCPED
molecule,measurement,setting,value
CNC(=O)[C@@H](NC(=O)[C@H](CC(C)C)[C@H](O)C(=O)NO)C(C)(C)C,established well tolerated single daily dose,single daily dose,50 mg
"CN(C)[C@@H]1C(O)=C(C(N)=O)C(=O)[C@@]2(O)C(O)=C3C(=O)c4c(O)cccc4[C@@](C)(O)C3C[C@@H]12 (stereo in doubt) [tetracycline, 4-(dimethylamino)-1,4,4a,5,5a,6,11,12a-octahydro-3,6,10,12,12a-pentahydroxy-6-methyl-1,11-dioxo-2-naphthacenecarboxamide]",well tolerated daily dosage,,1000 mg
same,established (well) tolerated single dose,,1000 mg
CN1C(=O)N(C[C@H](C(=O)NO)[C@@H](CC2CCCC2)C(=O)N2CCCCC2)C(=O)C1(C)C [TROCADE],established (well) tolerated single dose,,150 mg
"C[C@H]1c2cccc(O)c2C(=O)C2=C(O)[C@]3(O)C(=O)C(C(N)=O)=C(O)[C@@H](N(C)C)[C@@H]3[C@@H](O)[C@@H]21 [doxycycline, α-6-deoxy-5-hydroxy-tetracycline]",well tolerated daily dosage,,100 mg
same,established (well) tolerated single dose,,200 mg
"CN(C)c1ccc(O)c2c1C[C@H]1C[C@H]3[C@H](N(C)C)C(O)=C(C(N)=O)C(=O)[C@@]3(O)C(O)=C1C2=O [minocycline, 7-dimethylamino-6-dimethyl-6-deoxytetracycline]",well tolerated daily dosage,,200 mg
same,established (well) tolerated single dose,,200 mg
"TIMP-1: 30 kD Tissue Inhibitor of Matrix Metalloproteinase, the most commonly expressed TIMP molecule",inhibition of interstitial collagenase,interstitial collagenase,better inhibitor of interstitial collagenase than TIMP-2
B1,inhibition of gelatinase B,gelatinase B,inhibits
same,inhibition of collagenase 1,collagenase 1,inhibits
same,inhibition of gelatinase A,gelatinase A,inhibits
same,inhibition of stromelysin,stromelysin,inhibits
